Here are results for four compounds from US5723485A, “1,2-Diarylindole derivatives, processes for their preparation and their uses in therapeutics” (Laboratories UPSA, priority 1996, dated 1998).

Molecules are shown by their SMILES.

Experiment [1] addresses T1, COX-1 (purified enzyme from ram seminal vesicles) (Ovis aries, UniProt P05979).
T1 construct: purified enzyme from ram seminal vesicles; from tissue; host or cells: ram seminal vesicles
T1 sequence (P05979 25-600): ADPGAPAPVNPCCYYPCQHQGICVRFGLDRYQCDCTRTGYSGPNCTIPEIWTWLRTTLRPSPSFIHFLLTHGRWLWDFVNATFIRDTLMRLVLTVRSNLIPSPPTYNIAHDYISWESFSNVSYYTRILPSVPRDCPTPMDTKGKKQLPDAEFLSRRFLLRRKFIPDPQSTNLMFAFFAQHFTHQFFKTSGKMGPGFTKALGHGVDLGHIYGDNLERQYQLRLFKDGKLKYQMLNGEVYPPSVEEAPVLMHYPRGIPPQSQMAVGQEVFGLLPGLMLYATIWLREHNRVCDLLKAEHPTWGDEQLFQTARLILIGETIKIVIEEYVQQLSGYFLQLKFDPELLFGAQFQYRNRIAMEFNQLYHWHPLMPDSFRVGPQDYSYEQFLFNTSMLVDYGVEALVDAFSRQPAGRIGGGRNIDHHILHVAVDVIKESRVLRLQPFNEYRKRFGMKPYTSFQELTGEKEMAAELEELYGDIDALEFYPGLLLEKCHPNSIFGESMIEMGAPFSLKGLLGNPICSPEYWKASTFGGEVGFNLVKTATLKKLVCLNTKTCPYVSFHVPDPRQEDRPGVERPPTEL
Nature of the experiment: Inhibition of COX-1 enzymatic activity (PGE2 determined by EIA). The format is biochemical. The settings on record: arachidonic acid 6 μM, mean ± standard deviation, 4 determinations; for inhibition at 10 µM: 10^-5 M; for inhibition at 0.1 µM: 10^-7 M. The protocol:
(§1) The molecule studied is preincubated for 10 minutes at 25° C. with 2 U of COX-1 (purified enzyme from ram seminal vesicles) or 1 U of COX-2 (purified enzyme from ewe placenta). Arachidonic acid (6 μM for COX-1, 4 μM for COX-2) is added to the reaction medium and incubation is carried out for 5 minutes at 25° C. When incubation has ended, the enzymatic reaction is stopped by the addition of 1N HCl and the PGE2 produced is determined by EIA. The results are expressed as the percentage inhibition of the COX-1 and COX-2 enzymatic activities and correspond to mean (±) standard deviations from the average of 4 determinations.

For experiment [2], the target named is T2, COX-2 (purified enzyme from ewe placenta) (Ovis aries, UniProt P79208).
T2 construct: purified enzyme from ewe placenta; from tissue; host or cells: ewe placenta
T2 sequence (P79208 17-603): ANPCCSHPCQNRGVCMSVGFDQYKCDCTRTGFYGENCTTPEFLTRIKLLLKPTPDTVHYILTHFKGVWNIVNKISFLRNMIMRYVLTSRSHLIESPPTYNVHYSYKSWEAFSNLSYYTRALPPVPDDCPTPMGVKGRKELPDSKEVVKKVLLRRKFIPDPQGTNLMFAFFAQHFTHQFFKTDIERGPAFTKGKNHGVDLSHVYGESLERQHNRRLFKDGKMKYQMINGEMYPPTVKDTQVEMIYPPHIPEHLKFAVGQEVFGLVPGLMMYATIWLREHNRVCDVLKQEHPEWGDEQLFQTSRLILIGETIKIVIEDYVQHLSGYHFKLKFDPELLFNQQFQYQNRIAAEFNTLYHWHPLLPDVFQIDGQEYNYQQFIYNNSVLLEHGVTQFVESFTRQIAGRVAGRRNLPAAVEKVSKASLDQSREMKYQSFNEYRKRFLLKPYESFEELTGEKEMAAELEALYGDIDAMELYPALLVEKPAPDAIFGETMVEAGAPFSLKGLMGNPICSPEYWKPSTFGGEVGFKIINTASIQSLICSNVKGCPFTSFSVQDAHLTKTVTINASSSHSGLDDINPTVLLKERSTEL
The experiment is described as follows: Inhibition of COX-2 enzymatic activity (PGE2 determined by EIA). The format is biochemical. The settings on record: arachidonic acid 4 μM, mean ± standard deviation, 4 determinations; for inhibition at 10 µM: 10^-5 M. The protocol: as §1

Consider `Cc1ccc(-n2c(-c3ccc(S(C)(=O)=O)cc3)cc3ccccc32)cc1` [Example 17, 1-(4-Methylphenyl)-2-[4-(methylsulfonyl)phenyl]indole], for which the values for the inhibition at 10 µM in experiment [1] and in experiment [2] were 29 ± 5% and 89 ± 2%, respectively. Besides, at 0.1 µM the inhibition in experiment [1] was 2 ± 2%.
For `CS(=O)(=O)c1ccc(-c2cc3ccccc3n2-c2ccccc2)cc1` [Example 18, 1-Phenyl-2-[4-(methylsulfonyl)phenyl]indole], the inhibition (usually the relative decrease from the control value, in per cent) at 10 µM in experiment [1] stood at 23 ± 6%; in experiment [2] it was 88 ± 2%. This compound had an inhibition at 0.1 µM in experiment [1] of 2 ± 2%.
As to `CS(=O)(=O)c1ccc(-c2cc3ccccc3n2-c2ccc(Cl)cc2)cc1` [Example 19, 1-(4-Chlorophenyl)-2-[4-(methylsulfonyl)phenyl]indole], testing at 10 µM in experiment [2] gave an inhibition of 95%.
On to `CS(=O)(=O)c1ccc(-c2cc3ccccc3n2-c2ccc(F)cc2)cc1` [Example 16, 1-(4-Fluorophenyl)-2-[4-(methylsulfonyl)phenyl]indole], for which the inhibition at 10 µM amounted to 36 ± 14% in experiment [1] and 83 ± 2% in experiment [2]. For the same compound, the inhibition at 0.1 µM is 4 ± 4% in experiment [1] and 29 ± 2% in experiment [2] (10^-7 M).
